Measurements reported in patent publication US20240317721A1, “PYRAZOLYL DERIVATIVES AS INHIBITORS OF THE KRAS MUTANT PROTEIN” (NOVARTIS AG, priority 2021, published 2024).

target: KRasG12C (M1-K169, biotinylated on the N-terminus) (Homo sapiens (Human), UniProt P01116, G12C); experiment: Covalent competition assay: scintillation proximity assay (SPA) quantifying covalent modification of KRASG12C; assay type: binding; conditions: competition with radiolabeled covalent probe (Compound B/Compound A), 2 hours incubation, 10 nM KRasG12C
In short: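 Test compounds compete with a radiolabeled covalent probe for modification of N-terminally biotinylated KRasG12C(M1-K169):GDP, final 10 nM protein, 25 nM radio-ligand, 475 nM unlabelled ligand, 2 h with agitation in 20 mM Tris-HCl pH 7.5, 150 mM NaCl, 0.1 mM MgCl2, 0.01% Tween-20.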

| SMILES | IC50 [nM] |
| --- | --- |
| C=CC(=O)N1CC2(CC(n3nc(N4CCn5nccc5C4(C)C)c(-c4c(Cl)c(C)cc5[nH]ncc45)c3C)C2)C1 (single isomer, unassigned) [Example 101a, 1-(6-(4-(5-chloro-6-methyl-1H-indazol-4-yl)-3-(4,4-dimethyl-6,7-dihydropyrazolo[1,5-a]pyrazin-5(4H)-yl)-5-methyl-1H-pyrazol-1-yl)-2-azaspiro[3.3]heptan-2-yl)prop-2-en-1-one] | > 50000 |
| C=CC(=O)N1CC2(CC(n3nc(N4CCn5nccc5C4(C)C)c(-c4c(Cl)c(C)cc5[nH]ncc45)c3C)C2)C1 (single isomer, unassigned) [Example 101b, 1-(6-(4-(5-chloro-6-methyl-1H-indazol-4-yl)-3-(4,4-dimethyl-6,7-dihydropyrazolo[1,5-a]pyrazin-5(4H)-yl)-5-methyl-1H-pyrazol-1-yl)-2-azaspiro[3.3]heptan-2-yl)prop-2-en-1-one] | 103 |
| C=CC(=O)N1CC2(CC(n3nc(N4CCC(N5C[C@H](OC)[C@H](OC)C5)CC4(C)C)c(-c4c(Cl)c(C)cc5[nH]ncc45)c3C)C2)C1 (single isomer, unassigned) [Example 102a] | > 5000 |
| C=CC(=O)N1CC2(CC(n3nc(N4CCC(N5C[C@H](OC)[C@H](OC)C5)CC4(C)C)c(-c4c(Cl)c(C)cc5[nH]ncc45)c3C)C2)C1 (single isomer, unassigned) [Example 102b] | 23 |
| C=CC(=O)N1CC2(CC(n3nc(N4CCCCC4(C)C)c(-c4c(Cl)c(C)cc5[nH]ncc45)c3C)C2)C1 (single isomer, unassigned) [Example 103a, 1-(6-(4-(5-chloro-6-methyl-1H-indazol-4-yl)-3-(2,2-dimethylpiperidin-1-yl)-5-methyl-1H-pyrazol-1-yl)-2-azaspiro[3.3]heptan-2-yl)prop-2-en-1-one] | > 5000 |
| C=CC(=O)N1CC2(CC(n3nc(N4CCCCC4(C)C)c(-c4c(Cl)c(C)cc5[nH]ncc45)c3C)C2)C1 (single isomer, unassigned) [Example 103b, 1-(6-(4-(5-chloro-6-methyl-1H-indazol-4-yl)-3-(2,2-dimethylpiperidin-1-yl)-5-methyl-1H-pyrazol-1-yl)-2-azaspiro[3.3]heptan-2-yl)prop-2-en-1-one] | 315 |
| C=CC(=O)N1CC2(CC(n3nc(N4C[C@H](C)N(C5COC5)CC4(C)C)c(-c4c(Cl)c(Cl)cc5[nH]ncc45)c3C)C2)C1 (single isomer, unassigned) [Example 104a] | 4440 |
| C=CC(=O)N1CC2(CC(n3nc(N4C[C@H](C)N(C5COC5)CC4(C)C)c(-c4c(Cl)c(Cl)cc5[nH]ncc45)c3C)C2)C1 (single isomer, unassigned) [Example 104b] | 27 |
| C=CC(=O)N1CC2(CC(n3nc(N4CCN(C[C@@H]5COCCO5)C[C@@]4(C)C(F)F)c(-c4c(Cl)c(Cl)cc5[nH]ncc45)c3C)C2)C1 (single isomer, unassigned) [Example 105a] | > 5000 |
| C=CC(=O)N1CC2(CC(n3nc(N4CCN(C[C@@H]5COCCO5)C[C@@]4(C)C(F)F)c(-c4c(Cl)c(Cl)cc5[nH]ncc45)c3C)C2)C1 (single isomer, unassigned) [Example 105b] | 19 |

Results, then the molecule that gave them:

| IC50 [nM] | SMILES |
| --- | --- |
| > 5000 | C=CC(=O)N1CC2(CC(n3nc(N4CCN(C5CCOCC5)C[C@@]4(C)C(F)F)c(-c4c(Cl)c(Cl)cc5[nH]ncc45)c3C)C2)C1 (single isomer, unassigned) [Example 106a] |
| 14 | C=CC(=O)N1CC2(CC(n3nc(N4CCN(C5CCOCC5)C[C@@]4(C)C(F)F)c(-c4c(Cl)c(Cl)cc5[nH]ncc45)c3C)C2)C1 (single isomer, unassigned) [Example 106b] |
| > 5000 | C=CC(=O)N1CC2(CC(n3nc(N4CCN(C[C@@H]5COCCO5)C[C@@]4(CC)C(F)F)c(-c4c(Cl)c(C)cc5[nH]ncc45)c3C)C2)C1 (single isomer, unassigned) [Example 107a] |
| 10 | C=CC(=O)N1CC2(CC(n3nc(N4CCN(C[C@@H]5COCCO5)C[C@@]4(CC)C(F)F)c(-c4c(Cl)c(C)cc5[nH]ncc45)c3C)C2)C1 (single isomer, unassigned) [Example 107b] |
